Patent publication US12286632B2, “Rationally-designed synthetic peptide shuttle agents for delivering polypeptide cargos from an extracellular space to the cytosol and/or nucleus of a target eukaryotic cell, uses thereof, methods and kits relating to same” (Feldan Bio Inc., priority 2016, dated 2025)
Ends that are not written are not given here. Peptide text beside a SMILES is read from it.

Legend:
HeLa cells [1] = assay: Plasmid DNA (pEGFP-C1) transfection by peptides (% cells with GFP signal, cell viability); conditions: DNA transfection in HeLa cells using peptides; pEGFP-C1 plasmid
in vitro [2] = conditions: human, HeLa cells
HeLa cells [3] = assay: GFP-NLS protein transduction assay (flow cytometry: Pos cells %, viability %, relative fluorescence intensity; microscopy); conditions: HeLa cells
in vitro [4] = conditions: human, HeLa cells; for viability: Cell viability (%) (±St Dev.; n = 3)
HeLa cells [5] = conditions: human, 10 s, 50 µM
in vitro [6] = conditions: human, NCI-H196 cells
in vitro [7] = conditions: human, HCC-78 cells
THP-1 cells = assay: HOXB4-WT transduction: target gene mRNA by real-time PCR (Fold over control) and total RNA (ng/μL) as marker for cell viability; assay type: cell-based, human; conditions: THP-1, serum
Procedure: Control and treated cells are transferred to separate sterile 1.5-mL tubes and centrifuged for 5 minutes at 300g. The cell pellets are resuspended in appropriate buffer to lyse the cells. RNAase-free 70% ethanol is then added followed by mixing by pipetting. The lysates are transferred to an RNeasy™ Mini spin column and centrifuged 30 seconds at 13000 RPM. After several washes with appropriate buffers and centrifugation steps, the eluates are collected in sterile 1.5-mL tubes on ice, and the RNA quantity in each tube is then quantified with a spectrophotometer. For DNase treatment, 2 μg of RNA is diluted in 15 μL of RNase-free water. 1.75 μL of 10X DNase buffer and 0.75 μL of DNase is then added, followed by incubation at 37° C. for 15 minutes. For reverse transcriptase treatment, 0.88 μL of EDTA […] is added, followed by incubation at 75° C. for 5 minutes. In a PCR tube, […] of DNase-treated RNA is mixed with 4 μL of iScript™ Reverse transcription Supermix (5X) and […] of nuclease-free water. The mix is incubated in a PCR machine with the following program: 5 min at 25° C., 30 min at 42° C. and 5 min at 85° C. Newly synthesized cDNA is transferred in sterile 1.5-mL tubes and diluted in 2 μL of nuclease-free water. 18 μL per well of a qPCR machine (CFX-96™) mix is then added in a PCR plate for analysis.
Briefly, THP-1 cells were plated at 30 000 cells/well one day before transduction. HOXB4-WT recombinant protein ([…]; Example 14.1) was co-incubated with different concentrations of His-CM18-PTD4 ([…]) and then exposed to THP-1 cells for 2.5 hours in the presence of serum. The cells were subjected to real time-PCR analysis as described in Example 14.2 to measure the mRNA levels of a target gene as a marker for HOXB4 activity, which was then normalized to the target gene mRNA levels detected in the negative control cells (no treatment), to obtain a “Fold over control” value. Total RNA levels (ng/μL) were also measured as a marker for cell viability.
Briefly, THP-1 cells were plated at 30 000 cells/well one day before the first time course experiment. HOXB4-WT recombinant protein (1.5 μM; Example 14.1) was co-incubated with His-CM18-PTD4 (0.8 μM) and then exposed to THP-1 cells for 0, 2.5, 4, 24 or 48 hours in presence of serum. The cells were subjected to real time-PCR analysis as described in Example 14.2 to measure mRNA levels of a target gene as a marker for HOXB4 activity, which was then normalized to the target gene mRNA levels detected in the negative control cells (no treatment), to obtain a “Fold over control” value. Total RNA levels (ng/μL) were also measured as a marker for cell viability.
Briefly, THP-1 cells were plated at 30 000 cells/well one day before the first time course experiment. HOXB4-WT recombinant protein (0.3 μM; Example 14.1) was co-incubated with His-CM18-PTD4 (0.8 μM) and then exposed to THP-1 cells for 0, 0.5, 1, 2, 2.5, 3 or 4 hours in presence of serum. The cells were subjected to real time-PCR analysis as described in Example 14.2 to measure mRNA levels of a target gene as a marker for HOXB4 activity, which was then normalized to target gene mRNA levels detected in the negative control cells (no treatment), to obtain a “Fold over control” value. Total RNA levels (ng/μL) were also measured as a marker for cell viability.
Briefly, THP-1 cells were plated at 30 000 cells/well one day before the first time course experiment. HOXB4-WT recombinant protein (1.5 μM; Example 14.1) co-incubated with the shuttle agents His-CM18-PTD4, TAT-KALA, EB1-PTD4, His-C(LLKK)3C-PTD4 and His-CM18-PTD4-His at 0.8 μM, and then exposed to THP-1 cells for 2.5 hours in presence of serum. The cells were subjected to real time-PCR analysis as described in Example 14.2 to measure mRNA levels of a target gene as a marker for HOXB4 activity, which was then normalized to target gene mRNA levels detected in the negative control cells (no treatment), to obtain a “Fold over control” value. […]

[8] = Cell viability (%) (±St. Dev.; n = 3)

In the case of `CC(C)C[C@H](NC(=O)[C@H](CC(C)C)NC(=O)[C@H](CCCCN)NC(=O)[C@H](CCCCN)NC(=O)[C@H](CC(C)C)NC(=O)[C@H](CC(C)C)NC(=O)[C@H](CCCCN)NC(=O)[C@H](CCCCN)NC(=O)[C@H](CC(C)C)NC(=O)[C@H](CC(C)C)NC(=O)[C@@H](N)CS)C(=O)N[C@@H](CCCCN)C(=O)N[C@@H](CCCCN)C(=O)N[C@@H](CS)C(=O)O` [C(LLKK)3] (H-CLLKKLLKKLLKKC-OH; N-terminus and C-terminus assumed), the “Mean % cells with GFP signal (±St. Dev.; n = 3)” value (from here on “Mean % cells with GFP signal”) (HeLa cells [1]) is reported as 0.00 ± 0.00% and the viability (in vitro [2]) is reported as 81.7 ± 2.34%.
For `CC[C@H](C)[C@H](NC(=O)[C@H](CCCCN)NC(=O)[C@H](CCCCN)NC(=O)[C@H](Cc1ccccc1)NC(=O)[C@H](CC(C)C)NC(=O)[C@H](CCCCN)NC(=O)[C@H](Cc1c[nH]c2ccccc12)NC(=O)[C@@H](N)CCCCN)C(=O)NCC(=O)N[C@@H](C)C(=O)N[C@H](C(=O)N[C@@H](CC(C)C)C(=O)N[C@@H](CCCCN)C(=O)N[C@H](C(=O)N[C@@H](CC(C)C)C(=O)N[C@H](C(=O)N[C@H](C(=O)NCC(=O)N[C@@H](CCCNC(=N)N)C(=O)N[C@@H](CCC(N)=O)C(=O)N[C@H](C(=O)N[C@@H](CCCCN)C(=O)N[C@H](C(=O)N[C@@H](Cc1c[nH]c2ccccc12)C(=O)N[C@@H](Cc1ccccc1)C(=O)N[C@@H](CCC(N)=O)C(=O)N[C@@H](CC(N)=O)C(=O)N[C@@H](CCCNC(=N)N)C(=O)N[C@@H](CCCNC(=N)N)C(=O)N[C@@H](CCSC)C(=O)N[C@@H](CCCCN)C(=O)N[C@@H](Cc1c[nH]c2ccccc12)C(=O)N[C@@H](CCCCN)C(=O)N[C@@H](CCCCN)C(=O)N[C@@H](CS)C(=O)O)[C@@H](C)CC)[C@@H](C)CC)[C@@H](C)O)[C@@H](C)O)C(C)C)C(C)C` [CM18-Pen-Cys], the “Mean % cells with GFP signal” value (HeLa cells [1]) was 0.01 ± 0.0% and the viability (in vitro [2]) was 16.1 ± 0.12%.
For `CC(C)C[C@H](NC(=O)[C@H](CCCNC(=N)N)NC(=O)[C@H](CCC(=O)O)NC(=O)CNC(=O)[C@H](CCC(N)=O)NC(=O)[C@@H](NC(=O)[C@H](Cc1c[nH]c2ccccc12)NC(=O)[C@H](CC(C)C)NC(=O)[C@H](CCCCN)NC(=O)[C@H](CC(C)C)NC(=O)[C@H](CC(C)C)NC(=O)[C@H](CCCNC(=N)N)NC(=O)[C@H](CO)NC(=O)[C@H](Cc1c[nH]c2ccccc12)NC(=O)[C@H](CC(C)C)NC(=O)[C@H](CS)NC(=O)[C@H](CC(C)C)NC(=O)[C@H](CC(C)C)NC(=O)[C@H](Cc1c[nH]cn1)NC(=O)[C@H](Cc1c[nH]cn1)NC(=O)[C@H](Cc1c[nH]cn1)NC(=O)[C@H](Cc1c[nH]cn1)NC(=O)[C@H](Cc1c[nH]cn1)NC(=O)[C@@H](N)Cc1c[nH]cn1)[C@@H](C)O)C(=O)N[C@@H](CCCCN)C(=O)N[C@@H](C)C(=O)N[C@@H](CCCCN)C(=O)N[C@@H](CS)C(=O)N[C@@H](C)C(=O)N[C@@H](CCCCN)C(=O)N[C@@H](C)C(=O)N[C@@H](CS)C(=O)N[C@@H](CCC(=O)O)C(=O)N[C@@H](CCCNC(=N)N)C(=O)O` [FSD24] (H-HHHHHHLLCLWSRLLKLWTQGERLKAKCAKACER-OH; N-terminus and C-terminus assumed), the “Mean % cells with GFP signal” value (HeLa cells [1]) was 0.20 ± 0.00%, the “Mean % cells with GFP signal” value (HeLa cells [3]; Table B2, GFP-NLS cargo) was 37.48 ± 4.08% and the viability (in vitro [4]) was 75.3 ± 3.93%. For the same molecule, the viability (in vitro [2]) was 96.5 ± 3.02%.
In the case of “GLFEALLELLESLWELLLEAYARAAARQARA [JST-PTD4]”, the “Cell viability (%) (±St. Dev.; n = 3)” value (HeLa cells [5]) is reported as 98.9 ± 0.57% and the viability (in vitro [2]) is reported as 70.2 ± 5.39%.
In the case of “HHHHHHCMKVVWEIVLAKYKGGGGRARAASRRARA [FSD42]”, the “Mean % cells with GFP signal” value (HeLa cells [1]) is reported as 0.12 ± 0.02%, the “Mean % cells with GFP signal” value (HeLa cells [3]; Table C3, GFP-NLS 10 μM, 10 μM of the peptide, 1 min) is reported as 1.59 ± 0.39% and the viability at 1 min, 10 µM (in vitro [4]; [8]) is reported as 97.3 ± 1.07%. It also gave a viability (in vitro [2]) of 96.7 ± 1.96%.
With “HHHHHHHHHKWKLFKKIGAVLKVLTTGYARAAARQARA [Peptide 9His-CM18-PTD4]” the “Mean % cells with GFP signal” value (HeLa cells [1]) was 0.04 ± 0.01% and the viability (in vitro [2]) was 98.72 ± 0.93%.
“HHHHHHLLKLWSRLLKLWTQGRRLKAKRAKAHHHHHH [FSD5]” showed a viability at 1 min, 8 µM (in vitro [6]) of 69.9 ± 6.38%, a viability at 1 min, 10 µM (in vitro [6]) of 47.2 ± 3.54% and a viability at 2 min, 5 µM (in vitro [6]) of 77.2 ± 6.17%. It also gave a viability at 1 min, 8 µM (in vitro [7]) of 87.7 ± 6.52%, a viability at 1 min, 10 µM (in vitro [7]) of 15.9 ± 0.83% and a viability at 2 min, 5 µM (in vitro [7]) of 75.3 ± 6.18%. For the same molecule, the viability (in vitro [4]) was 86 ± 7.45%, the viability at 1 min, 8 µM (in vitro [4]; [8]) was 85 ± 6.27% and the viability at 1 min, 10 µM (in vitro [4]; [8]) was 76 ± 7.45%. For the same molecule, the viability at 2 min, 5 µM (in vitro [4]; [8]) was 35.5 ± 4.82% and the viability (in vitro [2]) was 93.2 ± 8.63%.
For HOXB4-WT, the “Fold over control (mean ± St. Dev)” value (THP-1 cells; Table 14.1, 2.5 hours, shuttle 0 μM, HOXB4-WT 1.5 μM (alone)) was 4.3 ± 0.1, the “Fold over control (mean ± St. Dev)” value (THP-1 cells; Table 14.2, shuttle 0 μM, HOXB4-WT 1.5 μM (alone), exposure 2.5 h) was 3.4 ± 0.3 and the “Fold over control (mean ± St. Dev)” value (THP-1 cells; Table 14.3, shuttle 0.8 μM, HOXB4-WT 0 μM (alone), exposure 2.5 h) was 1 ± 0.14. For the same molecule, the “Fold over control (mean ± St. Dev)” value (THP-1 cells; Table 14.4, shuttle 0.8 μM, HOXB4-WT 0 μM (alone), exposure 2.5 h) was 1 ± 0.11.
